These results are taken from patent US20220259193A1, “KCNT1 INHIBITORS AND METHODS OF USE” (Praxis Precision Medicines, Inc., priority 2019, published 2022).

The target in this assay is T1, KCNT1 (KNa1.1, Slack) (Homo sapiens, UniProt Q5JUK3).
T1 construct: expressed in transfected cells; host or cells: HEK-TREX (tetracycline-inducible HEK cell line)
T1 sequence (Q5JUK3 1-1230): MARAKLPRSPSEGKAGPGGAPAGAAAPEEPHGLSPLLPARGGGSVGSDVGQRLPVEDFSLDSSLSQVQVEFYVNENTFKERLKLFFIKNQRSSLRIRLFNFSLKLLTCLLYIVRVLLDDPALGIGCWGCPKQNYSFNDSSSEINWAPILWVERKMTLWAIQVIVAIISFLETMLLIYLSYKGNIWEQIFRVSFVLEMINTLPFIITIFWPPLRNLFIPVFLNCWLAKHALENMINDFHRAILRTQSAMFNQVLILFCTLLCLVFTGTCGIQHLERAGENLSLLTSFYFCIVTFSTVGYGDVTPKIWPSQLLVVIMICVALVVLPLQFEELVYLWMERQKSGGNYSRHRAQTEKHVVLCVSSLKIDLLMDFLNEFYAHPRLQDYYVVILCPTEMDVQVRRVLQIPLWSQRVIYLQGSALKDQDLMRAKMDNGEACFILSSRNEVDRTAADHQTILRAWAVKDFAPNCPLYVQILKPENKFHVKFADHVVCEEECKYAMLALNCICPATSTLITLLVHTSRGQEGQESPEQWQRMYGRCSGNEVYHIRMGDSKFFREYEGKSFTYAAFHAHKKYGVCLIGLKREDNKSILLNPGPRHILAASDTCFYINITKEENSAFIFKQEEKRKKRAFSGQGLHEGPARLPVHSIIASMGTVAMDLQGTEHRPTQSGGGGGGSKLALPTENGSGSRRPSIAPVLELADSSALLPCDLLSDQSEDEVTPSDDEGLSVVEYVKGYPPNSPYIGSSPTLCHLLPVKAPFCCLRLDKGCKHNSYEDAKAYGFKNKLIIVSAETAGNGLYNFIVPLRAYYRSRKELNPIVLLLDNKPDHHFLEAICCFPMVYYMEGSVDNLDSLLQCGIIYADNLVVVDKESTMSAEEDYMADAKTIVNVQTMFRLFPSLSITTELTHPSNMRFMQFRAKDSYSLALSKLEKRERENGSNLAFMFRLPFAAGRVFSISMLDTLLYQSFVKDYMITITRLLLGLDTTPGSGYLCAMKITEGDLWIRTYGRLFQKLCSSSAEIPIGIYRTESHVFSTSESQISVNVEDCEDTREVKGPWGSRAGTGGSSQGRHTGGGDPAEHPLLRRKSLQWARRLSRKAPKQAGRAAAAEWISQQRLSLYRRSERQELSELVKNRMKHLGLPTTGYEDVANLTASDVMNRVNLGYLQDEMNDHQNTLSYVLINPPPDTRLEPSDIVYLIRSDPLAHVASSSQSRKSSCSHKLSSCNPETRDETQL
Kind of assay: KCNT1 patch clamp assay (SyncroPatch 384PE automated patch clamp). The following applies: tetracycline inducible HEK-TREX cell line; perforated patch; step from −80 mV to 0 mV; room temperature; read-out: KCNT1-WT IC50. Format: cell-based. How it is done:
KCNT1—Patch Clamp Assay Inhibition of KCNT1 (KNa1.1, Slack) was evaluated using a tetracycline inducible cell line (HEK-TREX). Currents were recorded using the SyncroPatch 384PE automated, patch clamp system. Pulse generation and data collection were performed with PatchController384 V1.3.0 and DataController384 V1.2.1 (Nanion Technologies). The access resistance and apparent membrane capacitance were estimated using built-in protocols. Current were recorded in perforated patch mode (10 μM escin) from a population of cells. […] The cells were allowed to recover in the cell hotel prior to experimentation. Currents were recorded at room temperature. […] The extracellular solution was used as the wash, reference and compound delivery solution. […] Escin is made at a 5 mM stock in water, aliquoted, and stored at −20° C. The compound plate was created at 2× concentrated in the extracellular solution. The compound was diluted to 1:2 when added to the recording well. The amount of DMSO in the extracellular solution was held constant at the level used for the highest tested concentration. A holding potential of −80 mV with a 100 ms step to 0 mV was used. […] The average mean current from 3 sweeps was calculated and the % inhibition of each compound was calculated. The % Inhibition as a function of the compound concentration was fit with a Hill equation to derive IC50, slope, min and max parameters.

Consider `C[C@H](NC(=O)OC1CCCC1)c1nc(-c2ccnc(C3CC3)c2)no1` [Compound 276], for which the IC50 was at most 1000 nM.

In the case of `Cc1nn(C(C)C)cc1C(=O)N[C@@H](C)c1nc(-c2ccc(F)c(Cl)c2)no1` [Compound 88], the IC50 fell in the range of 1000 to 20000 nM. On to `CC(NC(=O)c1cc(C(F)(F)F)nn1C)c1nc(-c2ccc(F)c(F)c2)no1` (stereo not shown) [Compound 67], for which the IC50 was at most 1000 nM. For the molecule `CCOc1cc(-c2noc([C@H](C)NC(=O)c3cc(C(F)(F)F)nn3C)n2)ccn1` [Compound 205, (S)—N-(1-(3-(2-ethoxypyridin-4-yl)-1,2,4-oxadiazol-5-yl)ethyl)-1-methyl-3-(trifluoromethyl)-1H-pyrazole-5-carboxamide], the IC50 was at most 1000 nM. To `CC(NC(=O)c1cc(C2CC2)nn1C)c1nc(-c2cccc(F)c2)no1` (stereo not shown) [Compound 5] belongs at most 1000 nM; to `CC(NC(=O)c1cc(C(F)(F)F)nn1C)c1nc(-c2ccnc(N3CCCCC3)c2)no1` (single isomer, unassigned) [Compound 210], at most 1000 nM. The value for `C[C@H](NC(=O)c1cc(C(F)F)nn1C(F)F)c1nc(-c2cccc(F)c2)no1` [Compound 130] was at most 1000 nM; that for `COc1cccc(-c2noc([C@H](C)NC(=O)OC(C)(C)C)n2)c1` [Compound 283, tert-butyl (S)-(1-(3-(3-methoxyphenyl)-1,2,4-oxadiazol-5-yl)ethyl)carbamate] was 1000 to 20000 nM. The value for `C[C@H](NC(=O)c1cc(C(F)(F)F)nn1C)c1nc(-c2ccnc(CN3CCCC3)c2)no1` [Compound 261, (S)-1-methyl-N-(1-(3-(2-(pyrrolidin-1-ylmethyl)pyridin-4-yl)-1,2,4-oxadiazol-5-yl)ethyl)-3-(trifluoromethyl)-1H-pyrazole-5-carboxamide] was at least 20000 nM. Take `COC1(c2cc(-c3noc([C@H](C)NC(=O)OC(C)(C)C)n3)ccn2)CC1` [Compound 262, tert-butyl (S)-(1-(3-(2-(1-methoxycyclopropyl)pyridin-4-yl)-1,2,4-oxadiazol-5-yl)ethyl)carbamate]: the IC50 lay within 1000 to 20000 nM. The value for `CO[C@@H](C)[C@@H](NC(=O)c1cc(C(F)(F)F)nn1C)c1nc(-c2cccc(F)c2)no1` [Compound 138] was at most 1000 nM; that for `C[C@H](NC(=O)c1cc(C(F)F)nn1C)c1nc(-c2ccnc(C3CC3)c2)no1` [Compound 229, (S)—N-(1-(3-(2-cyclopropylpyridin-4-yl)-1,2,4-oxadiazol-5-yl)ethyl)-3-(difluoromethyl)-1-methyl-1H-pyrazole-5-carboxamide] was at most 1000 nM. Regarding `Cn1nc(C(F)(F)F)cc1C(=O)NCc1nc(-c2ccnc(C(F)(F)F)c2)no1` [Compound 300, 2-methyl-5-(trifluoromethyl)-N-[[3-[2-(trifluoromethyl)-4-pyridyl]-1,2,4-oxadiazol-5-yl]methyl]pyrazole-3-carboxamide], the IC50 was at most 1000 nM. To `CC(C)Oc1cc(-c2noc([C@H](C)NC(=O)OC(C)(C)C)n2)ccn1` [Compound 286, tert-butyl (S)-(1-(3-(2-isopropoxypyridin-4-yl)-1,2,4-oxadiazol-5-yl)ethyl)carbamate] belongs at most 1000 nM; to `CC[C@H](NC(=O)c1ccnn1C1CCCC1)c1nc(-c2ccnc(C)c2)no1` [Compound 216, (S)-1-cyclopentyl-N-(1-(3-(2-methylpyridin-4-yl)-1,2,4-oxadiazol-5-yl)propyl)-1H-pyrazole-5-carboxamide], at most 1000 nM. The value for `CC(C)Oc1cc(-c2noc([C@H](C)NC(=O)c3cc(C(F)(F)F)nn3CC(=O)N(C)C)n2)ccn1` [Compound 224, (S)-1-(2-(dimethylamino)-2-oxoethyl)-N-(1-(3-(2-isopropoxypyridin-4-yl)-1,2,4-oxadiazol-5-yl)ethyl)-3-(trifluoromethyl)-1H-pyrazole-5-carboxamide] was at most 1000 nM; that for `CN(C)C(=O)C[C@@H](NC(=O)c1cc(C(F)(F)F)nn1C)c1nc(-c2cccc(F)c2)no1` (single isomer, unassigned) [Compound 135] was 1000 to 20000 nM. To `CO[C@H](C)[C@H](NC(=O)c1cc(C(F)(F)F)nn1C)c1nc(-c2cccc(F)c2)no1` [Compound 131] belongs 1000 to 20000 nM.

As for `Cc1nn(C(C)C)cc1C(=O)N[C@@H](C)c1nc(-c2cccc(F)c2)no1` [Compound 95], the IC50 lay in the range of 1000 to 20000 nM.

Consider `Cc1nn(C(C)C)cc1C(=O)N[C@@H](C)c1nc(-c2cccc(F)c2)no1` [Compound 153], for which the IC50 was at most 1000 nM. To `C[C@H](NC(=O)c1ccnn1Cc1ccccc1)c1nc(-c2ccnc(C3CC3)c2)no1` [Compound 280, (S)-1-benzyl-N-(1-(3-(2-cyclopropylpyridin-4-yl)-1,2,4-oxadiazol-5-yl)ethyl)-1H-pyrazole-5-carboxamide] belongs at most 1000 nM; to `CC(NC(=O)c1cc(C(F)(F)F)nn1C)c1nc(-c2cccc(O)c2)no1` (stereo not shown) [Compound 186, N-(1-(3-(3-hydroxyphenyl)-1,2,4-oxadiazol-5-yl)ethyl)-1-methyl-3-(trifluoromethyl)-1H-pyrazole-5-carboxamide], 1000 to 20000 nM.

For `Cc1nn(C(C)C)cc1C(=O)N[C@@H](C)c1nc(-c2cccc(OC(F)(F)F)c2)no1` [Compound 100], the IC50 lay within 1000 to 20000 nM.

Turning to `COC(=O)c1cccc(-c2noc(C(C)NC(=O)c3cc(C(F)(F)F)nn3C)n2)c1` (stereo not shown) [Compound 181, methyl 3-(5-(1-(1-methyl-3-(trifluoromethyl)-1H-pyrazole-5-carboxamido)ethyl)-1,2,4-oxadiazol-3-yl)benzoate], the IC50 is at most 1000 nM.

Take `C[C@H](NC(=O)OC(C)(C)C)c1nc(-c2ccnc(OCC(F)F)c2)no1` [Compound 294, tert-butyl (S)-(1-(3-(2-(2,2-difluoroethoxy)pyridin-4-yl)-1,2,4-oxadiazol-5-yl)ethyl)carbamate]: the IC50 lay within 1000 to 20000 nM. To `C[C@H](NC(=O)c1cc(C(F)(F)F)nn1C)c1nc(-c2ccnc(COC3CC3)c2)no1` [Compound 254, (S)—N-(1-(3-(2-(cyclopropoxymethyl)pyridin-4-yl)-1,2,4-oxadiazol-5-yl)ethyl)-1-methyl-3-(trifluoromethyl)-1H-pyrazole-5-carboxamide] belongs 1000 to 20000 nM; to `Cc1nn(C(C)C)cc1C(=O)N[C@@H](C)c1nc(-c2cccc(C(F)(F)F)c2)no1` [Compound 89], at most 1000 nM; to `C[C@H](NC(=O)c1ccn(Cc2ccccc2)n1)c1nc(-c2ccnc(C3CC3)c2)no1` [Compound 306, 1-benzyl-N-[(1S)-1-[3-(2-cyclopropyl-4-pyridyl)-1,2,4-oxadiazol-5-yl]ethyl]pyrazole-3-carboxamide], at most 1000 nM. To `CCC(NC(=O)c1cc(C2CC2)nn1C)c1nc(-c2cccc(F)c2)no1` (stereo not shown) [Compound 48] belongs at most 1000 nM. For the molecule `CCc1cc(-c2noc([C@H](C)NC(=O)c3cc(C(F)(F)F)nn3C)n2)ccn1` [Compound 268, (S)—N-(1-(3-(2-ethylpyridin-4-yl)-1,2,4-oxadiazol-5-yl)ethyl)-1-methyl-3-(trifluoromethyl)-1H-pyrazole-5-carboxamide], the IC50 is at most 1000 nM. To `Cc1cccc(-c2noc([C@H](C)NC(=O)c3cn(C(C)C)nc3C)n2)c1` [Compound 233] belongs at most 1000 nM.
